How the values were obtained:
[1] = Inhibition of PARP (unknown origin); parameters: species or system Homo sapiens
[2] = molecular target: Dihydroorotate dehydrogenase (quinone), mitochondrial (Homo sapiens, UniProt Q02127); assay: Inhibition of DHODH (unknown origin)
[3] = molecular target: T1, Bromodomain-containing protein 4 (Homo sapiens, UniProt O60885); assay: Inhibition of BRD4 (unknown origin) at […] relative to control
[4] = molecular target: T2, Poly [ADP-ribose] polymerase 1 (Homo sapiens, UniProt P09874); assay: Inhibition of PARP1 (unknown origin) at […] relative to control
T2 sequence (P09874 whole entry): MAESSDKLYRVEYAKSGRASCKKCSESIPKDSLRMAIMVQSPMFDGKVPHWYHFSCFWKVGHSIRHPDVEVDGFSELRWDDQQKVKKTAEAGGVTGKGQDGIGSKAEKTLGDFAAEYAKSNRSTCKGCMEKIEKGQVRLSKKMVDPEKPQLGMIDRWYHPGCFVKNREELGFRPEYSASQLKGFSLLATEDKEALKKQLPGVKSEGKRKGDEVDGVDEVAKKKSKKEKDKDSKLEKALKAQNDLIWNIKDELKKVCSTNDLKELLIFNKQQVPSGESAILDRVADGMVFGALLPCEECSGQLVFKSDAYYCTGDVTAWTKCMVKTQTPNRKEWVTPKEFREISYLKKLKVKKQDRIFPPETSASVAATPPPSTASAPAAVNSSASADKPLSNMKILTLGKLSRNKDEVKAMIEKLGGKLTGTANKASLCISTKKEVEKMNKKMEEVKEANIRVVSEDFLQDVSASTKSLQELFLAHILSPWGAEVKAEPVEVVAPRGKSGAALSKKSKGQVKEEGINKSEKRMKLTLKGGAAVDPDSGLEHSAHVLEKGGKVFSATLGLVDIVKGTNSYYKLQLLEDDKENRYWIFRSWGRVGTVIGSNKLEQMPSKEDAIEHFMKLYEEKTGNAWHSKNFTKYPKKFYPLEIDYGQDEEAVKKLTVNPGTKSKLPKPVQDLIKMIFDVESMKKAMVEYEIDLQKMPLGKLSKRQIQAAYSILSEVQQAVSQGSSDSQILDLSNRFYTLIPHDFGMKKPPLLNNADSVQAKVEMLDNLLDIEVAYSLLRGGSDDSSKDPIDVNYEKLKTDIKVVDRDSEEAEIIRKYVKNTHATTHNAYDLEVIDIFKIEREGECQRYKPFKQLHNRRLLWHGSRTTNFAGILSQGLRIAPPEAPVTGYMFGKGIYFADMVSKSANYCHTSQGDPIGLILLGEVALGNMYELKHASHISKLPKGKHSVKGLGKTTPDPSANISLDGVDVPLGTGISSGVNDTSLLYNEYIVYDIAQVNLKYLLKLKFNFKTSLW

[5] = molecular target: Poly [ADP-ribose] polymerase 2 (Homo sapiens, UniProt Q9UGN5); assay: Inhibition of PARP2 (unknown origin) incubated for 60 mins by microplate assay kit method
Poly [ADP-ribose] polymerase 2, sequence (Q9UGN5 whole entry): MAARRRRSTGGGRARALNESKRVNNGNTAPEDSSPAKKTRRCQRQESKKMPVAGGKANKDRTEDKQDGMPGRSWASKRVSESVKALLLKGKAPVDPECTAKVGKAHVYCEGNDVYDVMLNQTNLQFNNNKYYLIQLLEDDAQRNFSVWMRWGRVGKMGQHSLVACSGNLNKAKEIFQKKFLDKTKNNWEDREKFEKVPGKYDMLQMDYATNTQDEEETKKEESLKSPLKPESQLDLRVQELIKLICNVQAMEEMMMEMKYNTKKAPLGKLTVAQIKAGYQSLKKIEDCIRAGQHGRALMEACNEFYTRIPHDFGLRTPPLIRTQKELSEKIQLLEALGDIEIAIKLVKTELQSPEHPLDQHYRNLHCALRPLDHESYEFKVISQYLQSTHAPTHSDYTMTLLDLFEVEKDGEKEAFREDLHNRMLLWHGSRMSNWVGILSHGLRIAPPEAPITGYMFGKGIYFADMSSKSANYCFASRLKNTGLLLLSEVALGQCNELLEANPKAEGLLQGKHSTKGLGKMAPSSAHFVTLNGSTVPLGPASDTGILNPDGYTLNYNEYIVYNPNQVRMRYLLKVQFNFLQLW

[6] = Inhibition of porcine brain microtubule polymerization incubated for 105 mins by fluorescent based assay; parameters: species or system Sus scrofa
[7] = molecular target: T2, Poly [ADP-ribose] polymerase 1; assay: Inhibition of PARP1 (unknown origin) incubated for 60 mins by microplate assay kit method
[8] = molecular target: T1, Bromodomain-containing protein 4; assay: Ratio of IC50 for RVX-208 to IC50 for test compound for BRD4 (unknown origin)
[9] = molecular target: T1, Bromodomain-containing protein 4; assay: Inhibition of BRD4 (unknown origin)
[10] = molecular target: Bromodomain-containing protein 2 (Homo sapiens, UniProt P25440); assay: Inhibition of BRD2 (unknown origin)
Bromodomain-containing protein 2, sequence (P25440 whole entry): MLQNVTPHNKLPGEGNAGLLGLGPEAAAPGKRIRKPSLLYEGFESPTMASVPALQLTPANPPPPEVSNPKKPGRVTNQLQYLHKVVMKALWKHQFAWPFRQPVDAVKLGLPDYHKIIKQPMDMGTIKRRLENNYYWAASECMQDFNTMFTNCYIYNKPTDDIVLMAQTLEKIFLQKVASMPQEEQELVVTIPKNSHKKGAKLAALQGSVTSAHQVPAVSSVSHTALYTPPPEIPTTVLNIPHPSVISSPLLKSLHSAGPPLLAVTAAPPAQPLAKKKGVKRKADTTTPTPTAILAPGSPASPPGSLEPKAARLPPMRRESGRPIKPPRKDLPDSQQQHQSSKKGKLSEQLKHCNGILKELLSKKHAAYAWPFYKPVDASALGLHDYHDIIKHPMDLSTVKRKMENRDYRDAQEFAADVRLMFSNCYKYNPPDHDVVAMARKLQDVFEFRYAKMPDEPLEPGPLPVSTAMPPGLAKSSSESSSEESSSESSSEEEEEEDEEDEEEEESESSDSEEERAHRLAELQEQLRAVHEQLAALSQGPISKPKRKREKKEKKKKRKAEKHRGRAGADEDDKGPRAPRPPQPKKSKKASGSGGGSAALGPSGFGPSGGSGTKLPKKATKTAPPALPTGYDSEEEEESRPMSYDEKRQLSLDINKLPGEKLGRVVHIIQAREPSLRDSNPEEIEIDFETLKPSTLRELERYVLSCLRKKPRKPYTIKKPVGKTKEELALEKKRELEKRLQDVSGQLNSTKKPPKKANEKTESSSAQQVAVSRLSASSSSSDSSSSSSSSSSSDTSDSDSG

[11] = Half life in Sprague-Dawley rat plasma at 10 mg/kg, po; format: ADME, organism-based; details: in vivo
[12] = molecular target: T2, Poly [ADP-ribose] polymerase 1; assay: Inhibition of PARP1 (unknown origin) relative to control; details: concentration not given here
[13] = Tmax in Sprague-Dawley rat plasma at 10 mg/kg, po; format: ADME, organism-based; details: in vivo
[14] = molecular target: T1, Bromodomain-containing protein 4; assay: Inhibition of BRD4 (unknown origin) relative to control; details: concentration not given here
[15] = molecular target: T2, Poly [ADP-ribose] polymerase 1; assay: Inhibition of PARP1 (unknown origin)
[16] = molecular target: T3, Bromodomain-containing protein 1 (Homo sapiens, UniProt O95696); assay: Inhibition of BRD1 (unknown origin)
T3 sequence (O95696 whole entry): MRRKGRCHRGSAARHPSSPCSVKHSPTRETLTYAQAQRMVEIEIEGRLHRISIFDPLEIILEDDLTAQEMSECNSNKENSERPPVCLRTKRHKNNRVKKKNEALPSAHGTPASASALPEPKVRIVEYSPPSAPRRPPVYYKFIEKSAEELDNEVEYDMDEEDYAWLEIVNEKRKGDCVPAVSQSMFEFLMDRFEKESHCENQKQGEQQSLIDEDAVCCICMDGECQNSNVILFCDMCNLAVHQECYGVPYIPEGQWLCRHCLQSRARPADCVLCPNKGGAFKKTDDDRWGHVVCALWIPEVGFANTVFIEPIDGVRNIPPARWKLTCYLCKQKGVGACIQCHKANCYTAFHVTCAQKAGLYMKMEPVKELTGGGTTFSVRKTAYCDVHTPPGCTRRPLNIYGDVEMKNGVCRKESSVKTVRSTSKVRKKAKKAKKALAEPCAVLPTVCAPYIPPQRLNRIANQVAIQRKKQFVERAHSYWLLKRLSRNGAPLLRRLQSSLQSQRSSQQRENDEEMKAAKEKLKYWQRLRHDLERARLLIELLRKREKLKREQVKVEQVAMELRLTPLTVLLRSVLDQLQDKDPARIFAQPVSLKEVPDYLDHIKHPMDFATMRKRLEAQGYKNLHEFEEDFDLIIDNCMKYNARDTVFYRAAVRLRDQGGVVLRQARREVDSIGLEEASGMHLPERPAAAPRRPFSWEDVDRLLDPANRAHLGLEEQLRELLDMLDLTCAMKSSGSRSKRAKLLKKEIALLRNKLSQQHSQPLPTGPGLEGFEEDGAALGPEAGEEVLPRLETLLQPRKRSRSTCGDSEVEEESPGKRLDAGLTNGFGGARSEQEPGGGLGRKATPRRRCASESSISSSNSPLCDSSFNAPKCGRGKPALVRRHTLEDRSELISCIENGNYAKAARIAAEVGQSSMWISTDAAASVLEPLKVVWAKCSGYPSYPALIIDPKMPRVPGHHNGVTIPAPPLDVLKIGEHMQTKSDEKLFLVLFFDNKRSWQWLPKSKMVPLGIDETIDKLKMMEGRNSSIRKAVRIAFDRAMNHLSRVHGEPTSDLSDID

[17] = Cmax in Sprague-Dawley rat plasma at 10 mg/kg, po; format: ADME, organism-based; parameters: dose 10 mg/kg, route po; details: in vivo
[18] = AUC (0 to infinity) in Sprague-Dawley rat plasma at 10 mg/kg, po; format: ADME, organism-based; parameters: time infinity, dose 10 mg/kg, route po; details: in vivo
[19] = MRT in Sprague-Dawley rat plasma at 10 mg/kg, po; format: ADME, organism-based
[20] = tested on: HCC1937; assay: Antiproliferative activity against BRCA deficient human HCC1937 cells assessed as inhibition of cell growth incubated for 48 hrs by MTT assay; format: functional, cell-based; details: HCC1937, 48 h
[21] = tested on: MCF7; assay: Antiproliferative activity against BRCA proficient human MCF7 cells assessed as inhibition of cell growth incubated for 48 hrs by MTT assay; format: functional, cell-based; details: MCF7, 48 h
[22] = molecular target: Rho-associated protein kinase 1 (Homo sapiens, UniProt Q13464); assay: Inhibition of ROCK1 (unknown origin)
Rho-associated protein kinase 1, sequence (Q13464 whole entry): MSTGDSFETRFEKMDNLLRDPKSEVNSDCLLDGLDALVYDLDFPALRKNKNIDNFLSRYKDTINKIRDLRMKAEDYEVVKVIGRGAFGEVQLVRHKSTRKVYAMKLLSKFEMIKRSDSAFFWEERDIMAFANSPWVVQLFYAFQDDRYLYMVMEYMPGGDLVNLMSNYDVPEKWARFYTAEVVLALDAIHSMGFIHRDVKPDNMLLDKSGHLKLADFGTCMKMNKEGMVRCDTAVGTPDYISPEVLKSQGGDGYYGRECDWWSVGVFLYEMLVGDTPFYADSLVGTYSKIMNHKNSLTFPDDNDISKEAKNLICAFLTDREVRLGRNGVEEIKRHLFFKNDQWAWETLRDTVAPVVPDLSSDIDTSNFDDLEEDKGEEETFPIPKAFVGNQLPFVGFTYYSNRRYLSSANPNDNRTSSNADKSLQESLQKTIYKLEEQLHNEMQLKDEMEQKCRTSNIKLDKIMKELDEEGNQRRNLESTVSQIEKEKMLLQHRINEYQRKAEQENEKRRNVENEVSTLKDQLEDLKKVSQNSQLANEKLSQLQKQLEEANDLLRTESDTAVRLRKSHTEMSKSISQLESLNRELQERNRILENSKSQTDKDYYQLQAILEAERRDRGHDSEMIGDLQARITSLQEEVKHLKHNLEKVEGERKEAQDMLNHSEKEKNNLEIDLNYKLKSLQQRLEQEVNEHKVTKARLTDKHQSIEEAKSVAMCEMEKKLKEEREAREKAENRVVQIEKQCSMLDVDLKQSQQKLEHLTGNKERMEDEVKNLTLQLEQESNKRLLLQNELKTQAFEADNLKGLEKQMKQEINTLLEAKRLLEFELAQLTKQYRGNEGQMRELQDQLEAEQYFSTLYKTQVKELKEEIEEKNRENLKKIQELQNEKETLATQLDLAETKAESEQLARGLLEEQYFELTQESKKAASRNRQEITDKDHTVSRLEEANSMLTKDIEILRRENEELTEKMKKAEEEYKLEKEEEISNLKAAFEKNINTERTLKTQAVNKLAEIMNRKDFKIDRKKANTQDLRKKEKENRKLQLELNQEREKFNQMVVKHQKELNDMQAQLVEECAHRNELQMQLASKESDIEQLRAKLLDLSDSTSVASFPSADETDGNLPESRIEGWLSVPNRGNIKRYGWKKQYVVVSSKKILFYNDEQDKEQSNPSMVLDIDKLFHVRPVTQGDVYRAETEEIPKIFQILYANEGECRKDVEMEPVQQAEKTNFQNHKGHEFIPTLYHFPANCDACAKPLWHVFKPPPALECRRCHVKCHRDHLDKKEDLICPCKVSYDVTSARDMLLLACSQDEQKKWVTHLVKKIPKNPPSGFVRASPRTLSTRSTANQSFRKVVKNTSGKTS

[23] = molecular target: Rho-associated protein kinase 2 (Homo sapiens, UniProt O75116); assay: Inhibition of ROCK2 (unknown origin)
[24] = Ratio of olaparib IC50 to test compound IC50 for antiproliferative against BRCA proficient human MCF7 cells; format: functional
[25] = Ratio of olaparib IC50 to test compound IC50 for antiproliferative against BRCA deficient human HCC1937 cells; format: functional

Dihydroorotate dehydrogenase (quinone), mitochondrial, sequence (Q02127 whole entry): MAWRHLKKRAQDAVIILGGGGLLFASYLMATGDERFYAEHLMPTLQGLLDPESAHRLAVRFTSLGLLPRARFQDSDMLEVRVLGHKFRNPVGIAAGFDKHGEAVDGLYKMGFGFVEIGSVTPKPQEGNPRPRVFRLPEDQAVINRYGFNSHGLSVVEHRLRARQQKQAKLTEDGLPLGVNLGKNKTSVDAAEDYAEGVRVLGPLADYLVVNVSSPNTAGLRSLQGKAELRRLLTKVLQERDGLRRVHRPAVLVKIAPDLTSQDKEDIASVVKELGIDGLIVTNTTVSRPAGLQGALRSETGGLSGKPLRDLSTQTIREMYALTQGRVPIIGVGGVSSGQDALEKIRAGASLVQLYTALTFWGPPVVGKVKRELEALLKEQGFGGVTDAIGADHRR

Work on `CC(=O)Nc1ccc(COc2ccc(-c3ccc(-c4nc5c(C(=O)O)cc(C)cc5[nH]4)cc3)cc2)cc1` yielded an IC50 [1] of 44000 nM.

Work on `O=C(O)c1cc(F)cc2[nH]c(-c3ccc(-c4ccc(NC(=O)C5CC5)cc4F)cc3F)nc12` yielded an IC50 [1] of 84 nM and an IC50 [2] of 48000 nM.

For `COc1cc(OC)c2c(=O)[nH]c(-c3ccc([C@@H]4CCCNC4)cc3)nc2c1`, the inhibition [3] was 30% and the inhibition [4] was 65%.

In the case of `CCOC(=O)Nc1nc2ccc(-c3cc(Cc4n[nH]c(=O)c5ccccc45)ccc3F)cc2[nH]1`, the IC50 [5] is reported as 50 nM, the IC50 [6] is reported as 990 nM and the IC50 [7] is reported as 5 nM.

`COc1cc(OC)c2c(=O)[nH]c(-c3ccc(OCCOc4ccccc4C(N)=O)cc3)nc2c1` showed a Ratio IC50 [8] of 30, an IC50 [9] of 400 nM and an IC50 [10] of 379 nM. For the same compound, the t1/2 [11] was 3.1 h, the inhibition [12] was 88% and the Tmax [13] was 1.58 h. The inhibition [14] was 92%, the IC50 [15] was 4600 nM and the IC50 [16] was 440 nM. For the same compound, the Cmax [17] was 26.65 ng/mL, the AUC [18] was 144.7 ng·h/mL and the MRT [19] was 5.35 h.

In the case of `O=C(c1cc(Cc2n[nH]c(=O)c3ccccc23)ccc1F)N1CCN(C(=O)C2CC2)CC1` [OLAPARIB], the IC50 [20] is reported as 83100 nM and the IC50 [21] is reported as 232000 nM.

With `NC(=O)c1cccc2[nH]c(-c3ccc(-c4cncc(CN5CCCC5)c4)cc3)nc12` the IC50 [1] was 61 nM.

Compound `O=C(COc1cccc2c(=O)[nH]ccc12)c1ccccc1` has an IC50 [22] of 9300 nM and an IC50 [23] of 20500 nM.

For `O=C1/C(=C/c2ccncc2)CN(C(=O)c2cc(Cc3n[nH]c(=O)c4ccccc34)ccc2F)C/C1=C\c1ccncc1`, the “Ratio IC50” value [24] was 200 and the “Ratio IC50” value [25] was 40.

In the case of `CC(=O)Nc1cccc(-c2ccc(-c3nc4c(C(N)=O)cccc4[nH]3)cc2)c1`, the IC50 [1] is reported as 460 nM.

Reference: ChEMBL document CHEMBL5136991, “Dual-target inhibitors of poly (ADP-ribose) polymerase-1 for cancer therapy: Advances, challenges, and opportunities” (Eur J Med Chem, 2022)
